In one assay the target is T1, MOPC315 IgA Fab fragment (Mus musculus, UniProt P01729+P01822+P01844+P01878).
T1 construct: Fab fragment, generated by treating the reduced and alkylated IgA with papain; made in house
The experiment in a line: Affinity labeling of Fab (incorporation of cleavable affinity labels). In kind it is binding. Conditions: for % Fab labeled (without DNP-glycine) / label incorporated: Fab 10 μM; for % Fab labeled (without DNP-glycine): 1.5 equivalents aldehyde plus NaCNBH3, pH 7.0, 37° C., 20 hours, or 1.3 equivalents α-bromoketone, pH 9.0, 37° C., 16 hours; for % Fab labeled (with DNP-glycine): as without, in the presence of 10 mM competitive inhibitor DNP-glycine; for label incorporated: 1.5 or 1.3 equivalents of label, 37° C.; for non-specific labeling: in the presence of 10 mM DNP-glycine. The protocol: The strategy for introducing a thiol into the binding site of MOPC315 is outlined in FIG. 3. These steps were carried out with the Fab fragment, generated by treating the reduced and alkylated IgA with papain followed by affinity chromatography on DNP-coupled Sepharose 4B (Goetzl (1970) Biochemistry 9:1267). The Fab fragment (at 10 μM) was treated with either 1.5 equivalents of aldehydes 1 or 2 for one hour followed by 7.5 equivalents of NaCNBH3, in 0.2M sodium phosphate; pH 7.0, at 37° C. for 20 hours, or with 1.3 equivalents of α-bromoketones 3, 4, or 5 in 0.1M sodium bicarbonate, pH 9.0; at 37° C. for 16 hours. In both cases, the labeled Fab was purified by chromatography on Sephadex G-50 in 0.1M sodium phosphate, pH 7.3, and, after lyophilization, subsequent affinity chromatography on DNP-coupled Sepharose 4B (Goetzl, supra.) to remove unlabeled or non-specifically labeled Fab. The extent of derivatization was quantitated spectrophotometrically (for labels 1 and 2, λmax =360 nm, , ε=12,800 M^-1 cm^-1) and additionally, for labels 1 and 2, by incorporation of tritium from NaCNB^3 H3 (using 12 mCi/millimole NaCNB^3 H3). […] In both cases, less than 10% non-specific labeling occurred in the presence of 10 mM of the competitive inhibitor DNP-glycine.

The target in assay [1] is T2, MOPC315 IgA Fab fragment, thiolated Fab labeled with 2 (Fab-SH, thiol tethered at residue 52H of the heavy chain) (Mus musculus, UniProt P01729+P01822).
T2 construct: Fab fragment, generated by treating the reduced and alkylated IgA with papain; made in house
The assay can be described thus: Ester cleavage (thiolysis) assay, fluorometric release of coumarin. In kind it is biochemical. Here is the method:
(§1) Cleavage of DNP coumarin esters 14 and 15 by the thiol-containing antibodies was assayed in the presence and absence of 0.1 μM NaCl, 50 mM sodium phosphate, pH 7.0, with 24 μM dithiothreitol at 10° C. The release of free coumarin was quantitated fluorometrically, exciting at 355 nm and measuring emission at 455 nm. The S-thiopyridyl Fab was first dialyzed against assay buffer, 30 min. prior to the assays, an aliquot of the thiopyridyl Fab (0.15 mg in 0.19 ml) was reduced with 3.8 mM dithiothreitol at 20° C. For each assay, reduced, thiolated Fab (15 μg in 18.8 μl) was diluted with assay buffer (2.95 ml) so that the net concentrations of thiolated Fab and of dithiothreitol were 0.1 μM and 24 μM, respectively. After equilibrating, the substrate was added (30 μl of a stock solution in acetonitrile) and the solution mixed for 10 sec. before monitoring fluorescence change. Antibody rates were corrected by subtracting the rate of cleavage in the absence of Fab.
(§2) The reaction kinetics are consistent with the formation of a Michaelis complex (FIG. 6). […] Neither the uncleaved affinity-labeled antibody nor the iodoacetamide-alkylated antibody accelerated the rate of the thiolysis reaction above the background rate. The stoichiometry of product release corresponded to 1.0 coumarin to 1.0 Fab-SH. […]

Assay [2] addresses T3, MOPC315 fluorescein-Fab adduct (S-thiopyridyl Fab labeled with 2, derivatized with N-fluoresceinthioureido-2-mercaptoethylamine) (Mus musculus, UniProt P01729+P01822).
T3 construct: Fab fragment, generated by treating the reduced and alkylated IgA with papain; made in house
The experiment in a line: Fluorescence quenching binding assay. As to conditions: 0.10 μM adduct, 50 mM NaCl, 50 mM sodium phosphate, pH 7.0, 10° C.; read-out: association constant (converted). Here is the method:
FIG. 7 illustrates the results of a fluorescence quenching binding assay for DNP-glycine with fluorescein-Fab adduct (.quadrature.) versus control with fluorescein plus underivatized Fab ( ). Fluorescence quenching experiments were carried at 10° C. using 492 nm for excitation and measuring emission at 521 nm. The fluorescein-Fab adduct was diluted with assay buffer (above) to 0.10 μM. Aliquots of 2,4-DNP-glycine were added and, after mixing, the fluorescence observed. Free N-fluoresceinthioureido-2-mercapthoethylamine and underivatized Fab, each at 0.10 μM, were treated in a similar experiment.
(§3) Fluorescence quenching experiments were carried out at 10° C. using 492 nm for excitation and measuring emission at 521 nm. The fluorescein-Fab adduct was diluted wi.:h assay buffer (50 mM NaCl. 50 mM sodium phosphate, pH 7.0) to 0.10 μM. Aliquots of 2,4-DNP-glycinewere added and, after mixing, the fluorescence observed. The association constant of DNP-glycine to the fluorescein-Fab adduct was determined to be 3.0×10^5 M^-1, almost identical to the KA of DNP-glycine to underivatized MOPC 315, 2.0×10^5 M^-1.

In assay [3] the target is IgA MOPC315, underivatized. The assay can be described thus: Association of DNP ligands with the underivatized antibody. In kind it is binding. Conditions: underivatized MOPC 315. The protocol: The following studies were carried out on the IgA MOPC315, which binds substituted 2,4-dinitrophenyl (DNP) ligands with association constants ranging from 5×10^4 to 10^6 M^-1 (Haselkorn et al. (1974) Biochemistry 13:2210). Although a three-dimensional structure is not available, the antibody combining site has been characterized by spectroscopic methods (UV, fluorometry, NMR), chemical modification, and amino acid sequencing of the variable region. Moreover, earlier affinity-labeling studies with reagents of varying structures (Givol and Wilcheck (1977) Meth. Enzy. 46:479; Givol et al. (1971) Biochemistry 10:3461; and Strausbauch et al. (1971) Biochemistry 10:4342) defined a number of reactive amino acid side chains in the vicinity of the combining site.
as §3

For assay [4], the target named is T4, MOPC315 IgA Fab fragment, thiolated Fab labeled with bromoketone 4 (thiol tethered at tyrosine 34L) (Mus musculus, UniProt P01729+P01822).
T4 construct: Fab fragment, generated by treating the reduced and alkylated IgA with papain; made in house
The experiment in a line: Ester cleavage assay. The assay is classed as biochemical. Here is the method: as §1, §2

Broadly, the Ki is the equilibrium dissociation constant of an inhibitor or competing ligand from its target. The low end stands for higher affinity, the high end for lower affinity.

T1 sequence (P01822+P01878 fused): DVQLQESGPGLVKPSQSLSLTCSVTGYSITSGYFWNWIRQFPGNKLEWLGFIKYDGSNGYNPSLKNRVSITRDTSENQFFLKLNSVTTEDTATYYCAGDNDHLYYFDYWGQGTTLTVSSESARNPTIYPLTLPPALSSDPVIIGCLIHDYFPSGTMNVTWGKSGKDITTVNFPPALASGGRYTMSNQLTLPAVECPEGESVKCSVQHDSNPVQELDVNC
T1 sequence (P01729+P01844 fused): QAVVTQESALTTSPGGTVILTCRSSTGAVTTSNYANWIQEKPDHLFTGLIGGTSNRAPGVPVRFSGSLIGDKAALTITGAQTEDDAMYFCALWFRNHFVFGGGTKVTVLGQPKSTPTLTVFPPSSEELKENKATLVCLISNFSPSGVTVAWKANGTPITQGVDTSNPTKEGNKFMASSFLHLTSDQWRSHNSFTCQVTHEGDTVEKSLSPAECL
T2 sequence (P01822 19-137): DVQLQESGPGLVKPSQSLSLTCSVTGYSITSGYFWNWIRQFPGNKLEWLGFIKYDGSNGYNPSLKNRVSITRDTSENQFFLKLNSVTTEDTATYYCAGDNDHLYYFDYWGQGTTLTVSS
T2 sequence (P01729 20-129): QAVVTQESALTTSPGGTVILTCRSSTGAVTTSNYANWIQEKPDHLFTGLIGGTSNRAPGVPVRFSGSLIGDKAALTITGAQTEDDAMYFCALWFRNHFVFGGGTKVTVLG
T2 sequence (P01878 1-100 partner limits assumed): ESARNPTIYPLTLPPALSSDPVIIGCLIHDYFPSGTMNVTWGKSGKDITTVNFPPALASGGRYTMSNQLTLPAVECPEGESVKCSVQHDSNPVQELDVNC
T2 sequence (P01844 whole entry partner, the tested form may be a part): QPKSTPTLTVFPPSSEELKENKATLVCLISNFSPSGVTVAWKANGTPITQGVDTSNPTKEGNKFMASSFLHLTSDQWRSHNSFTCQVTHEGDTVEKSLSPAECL
T4 sequence (P01822 19-137): as the sequence (P01822 19-137) above
T4 sequence (P01729 20-129): as the sequence (P01729 20-129) above
T4 sequence (P01878 1-100 partner limits assumed): as the sequence (P01878 1-100 partner limits assumed) above
T4 sequence (P01844 whole entry partner, the tested form may be a part): as the sequence (P01844 whole entry partner, the tested form may be a part) above
T3 sequence (P01822 19-137): as the sequence (P01822 19-137) above
T3 sequence (P01729 20-129): as the sequence (P01729 20-129) above
T3 sequence (P01878 1-100 partner limits assumed): as the sequence (P01878 1-100 partner limits assumed) above
T3 sequence (P01844 whole entry partner, the tested form may be a part): as the sequence (P01844 whole entry partner, the tested form may be a part) above

In the case of `O=C(CBr)CCSc1ccc([N+](=O)[O-])cc1[N+](=O)[O-]` [compound 3, 1-Bromo-2-oxo-4-(S-DNP)-mercaptobutane], at MOPC315 IgA Fab fragment, the “% Fab labeled (without DNP-glycine)” value stood at 0% and the “% Fab labeled (with DNP-glycine)” value was 0%.

On to `O=CCCSSCCNc1ccc([N+](=O)[O-])cc1[N+](=O)[O-]` [compound 1, (N-2,4-Dinitrophenyl)-2-aminoethyl 3-oxopropyl disulfide], for which, on MOPC315 IgA Fab fragment, the “% Fab labeled (without DNP-glycine)” value was 22% and the “% Fab labeled (with DNP-glycine)” value is listed as 5%.

On to `O=C(CBr)CCCCSc1ccc([N+](=O)[O-])cc1[N+](=O)[O-]` [compound 5, 1-Bromo-2=oxo-6-(S-DNP)-mercaptohexane], for which, at MOPC315 IgA Fab fragment, the “% Fab labeled (without DNP-glycine)” value is listed as 15% and the “% Fab labeled (with DNP-glycine)” value was found to be 0%.

`O=C(CBr)CCCSc1ccc([N+](=O)[O-])cc1[N+](=O)[O-]` [compound 4, 1-Bromo-2-oxo-5-(S-DNP)-mercaptopentane]: at MOPC315 IgA Fab fragment, the label incorporated entry is given as “over 90%”, the “% Fab labeled (without DNP-glycine)” value is 85%, the “% Fab labeled (with DNP-glycine)” value is recorded as 0% and the non-specific labeling entry is given as “less than 10%”.

The compound `O=C(O)CNc1ccc([N+](=O)[O-])cc1[N+](=O)[O-]` [DNP-glycine] gave a Ki in assay [1] of 8 µM. Also, in assay [2], the Kd was 3.33 µM. In addition, the KA in assay [3] came to 200000 M⁻¹.

As for `CC(=O)Oc1ccc([N+](=O)[O-])cc1[N+](=O)[O-]` [DNP-acetate], the “hydrolysis of ester by thiolated Fab” value in assay [4] was “did not hydrolyze”.

Turning to `O=C(CCNc1ccc([N+](=O)[O-])cc1[N+](=O)[O-])Oc1ccc2ccc(=O)oc2c1` [ester 14, (N-DNP)-3-Aminopropanoic acid 7-hydroxycoumarin ester], the “acceleration of cleavage, factor over the cleavage reaction in equimolar dithiothreitol” value in assay [1] (pH 7.0, 10° C.) is reported as 6×10^4.

In the case of `O=CCCCSSCCNc1ccc([N+](=O)[O-])cc1[N+](=O)[O-]` [compound 2], at MOPC315 IgA Fab fragment, the label incorporated result is “over 90%”, the “% Fab labeled (without DNP-glycine)” value came out at 95%, the “% Fab labeled (with DNP-glycine)” value turned out to be 10% and the non-specific labeling result is reported as “less than 10%”.
